Source: patent US9216182B2, “Carbamate/urea derivatives containing piperidin and piperazin rings as H3 receptor inhibitors” (Novartis AG, priority 2011, dated 2015)

- melting point: 200.1 to 203.6 °C
SMILES: CC(C)N1CCN(C(=O)OC2CCN(c3ccc(C(N)=O)cn3)CC2)CC1 [Example 1.1, 1-(5-carbamoylpyridin-2-yl)piperidin-4-yl 4-isopropylpiperazine-1-carboxylate]
